Reference: patent US7115594B2, “Use of 2-methylene-19-nor-20(S)-1α,25-dihydroxyvitamin D3 to increase bone strength” (Wisconsin Alumni Research Foundation, priority 2000, dated 2006)
Entries after “also recorded” stand apart in the source; their conditions may differ.

Legend:
[1] = tested on: ovariectomized old female rats; experiment: Treatment of ovariectomized old female rats (bone mass, serum calcium, femur ash); details: for BMC / BMC/Body Wt. / BMD / Femur Ash / Femur Ash (%) / Body Wt. / Serum CA: ovariectomized rats, mean ± SEM
[2] = tested on: ovariectomized old female rats; experiment: Strength of femurs and vertebrae to mechanical stress (animals of Table 1); assay type: in vivo; details: for Stress Value Femur / Stress Value Vertebra: ovariectomized rats
[3] = target: T1, porcine intestinal vitamin D receptor (Sus scrofa, UniProt A3RGC1); experiment: Competitive binding of [3H]-1,25-(OH)2-D3 to the porcine intestinal vitamin D receptor; details: FIG. 1, standard 1,25-(OH)2D3
T1 construct: from tissue; host or cells: pig intestine (nuclear receptor preparation)
T1 sequence (A3RGC1 1-427): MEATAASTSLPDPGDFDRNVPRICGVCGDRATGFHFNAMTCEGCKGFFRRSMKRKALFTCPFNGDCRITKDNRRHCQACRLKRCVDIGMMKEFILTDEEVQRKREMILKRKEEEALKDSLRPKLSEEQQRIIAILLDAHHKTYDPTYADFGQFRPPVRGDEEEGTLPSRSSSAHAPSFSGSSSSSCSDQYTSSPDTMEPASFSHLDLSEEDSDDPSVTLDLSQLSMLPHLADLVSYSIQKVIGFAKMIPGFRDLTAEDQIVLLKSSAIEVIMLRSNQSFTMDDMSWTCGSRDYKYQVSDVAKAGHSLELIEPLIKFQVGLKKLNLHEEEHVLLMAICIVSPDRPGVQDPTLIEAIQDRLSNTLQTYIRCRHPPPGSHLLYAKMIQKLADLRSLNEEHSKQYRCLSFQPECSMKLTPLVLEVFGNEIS
Procedure: FIG. 1 is a graph illustrating the relative activity of 2-methylene-19-nor-20(S)-1α,25-dihydroxyvitamin D3, 2-methylene-19-nor-1α,25-dihydroxyvitamin D3 and 1α,25-dihydroxyvitamin D3 to compete for binding of [^3H]-1,25-(OH)2-D3 to the vitamin D pig intestinal nuclear receptor;
Competitive binding of the analogs to the porcine intestinal receptor was carried out by the method described by Dame et al (Biochemistry 25, 4523–4534, 1986).

[4] = tested on: intestinal calcium transport; experiment: Intestinal calcium transport activity; assay type: in vivo; details: FIG. 2
From the text: FIG. 2 is a graph illustrating the intestinal calcium transport activity of 2-methylene-19-nor-20(S)-1α,25-dihydroxyvitamin D3 as compared to 1α,25-dihydroxyvitamin D3;
The in vivo tests of increasing serum calcium of rats on a zero calcium diet provides an insight to […] or bone activity of 2MD.

Rhesus monkeys = experiment: Single oral dose in Rhesus monkeys, serum calcium; assay type: in vivo; details: single oral dose of 27 μg; 10 Kg Rhesus monkey; preliminary
From the text: FIGS. 7 and 8 snow a six week toxicity study in rats showing that 2MD appears safe at up to 30 pmol/day.
These and other tests indicate that primates will tolerate 2MD extremely well which may give a very large window between efficacy and the danger of hypercalcemia in man.

For `C=C1/C(=C\C=C2/CCC[C@]3(C)[C@@H]([C@H](C)CCCC(C)(C)O)CC[C@@H]23)C[C@@H](O)C[C@@H]1O` [1,25(OH)2D3, 1α,25-dihydroxyvitamin D3], the BMC ([1]; 250 pmol/d 5X/Week, 8 weeks) was 8.90 ± 0.40 g, the “BMC/Body Wt.” value ([1]; 250 pmol/d 5X/Week, 8 weeks) was 22.4 ± 0.48 mg/g and the BMD ([1]; 250 pmol/d 5X/Week, 8 weeks) was 0.297 ± 0.001 g/cm^2. The BMC ([1]; 250 pmol/d 5X/Week, 17 weeks) was 9.6 ± 0.39 g, the “BMC/Body Wt.” value ([1]; 250 pmol/d 5X/Week, 17 weeks) was 24.5 ± 0.87 mg/g and the BMD ([1]; 250 pmol/d 5X/Week, 17 weeks) was 0.308 ± 0.008 g/cm^2. For the same molecule, the BMC ([1]; 250 pmol/d 5X/Week, 30 weeks) was 10.1 ± 0.30 g, the “BMC/Body Wt.” value ([1]; 250 pmol/d 5X/Week, 30 weeks) was 26.1 ± 0.97 mg/g and the BMD ([1]; 250 pmol/d 5X/Week, 30 weeks) was 0.310 ± 0.007 g/cm^2. For the same molecule, the “Femur Ash” value ([1]; 250 pmol/d 5X/Week, 30 weeks) was 417 ± 23 mg, the “Femur Ash (%)” value ([1]; 250 pmol/d 5X/Week, 30 weeks) was 60.8 ± 1.1% and the BMC ([1]; 500 pmol/d 3X/Week, 17 weeks) was 11.5 ± 0.25 g. The “BMC/Body Wt.” value ([1]; 500 pmol/d 3X/Week, 17 weeks) was 27.6 ± 0.68 mg/g, the BMD ([1]; 500 pmol/d 3X/Week, 17 weeks) was 0.331 ± 0.008 g/cm^2 and the BMC ([1]; 500 pmol/d 3X/Week, 30 weeks) was 11.8 ± 0.23 g. The “BMC/Body Wt.” value ([1]; 500 pmol/d 3X/Week, 30 weeks) was 28.0 ± 0.69 mg/g, the BMD ([1]; 500 pmol/d 3X/Week, 30 weeks) was 0.328 ± 0.008 g/cm^2 and the “Femur Ash” value ([1]; 500 pmol/d 3X/Week, 30 weeks) was 478 ± 7.5 mg. For the same molecule, the “Femur Ash (%)” value ([1]; 500 pmol/d 3X/Week, 30 weeks) was 61.4 ± 1.3%, the BMC ([1]; 500 pmol/d 5X/Week, 8 weeks) was 10.2 ± 0.40 g and the “BMC/Body Wt.” value ([1]; 500 pmol/d 5X/Week, 8 weeks) was 26.3 ± 0.57 mg/g. The BMD ([1]; 500 pmol/d 5X/Week, 8 weeks) was 0.312 ± 0.005 g/cm^2, the “Stress Value Femur” value ([2]; 250 pmol/day/5X/Week) was 118.21 ± 19.85 and the “Stress Value Vertebra” value ([2]; 250 pmol/day/5X/Week) was 19.24 ± 5.66. The “Stress Value Femur” value ([2]; 500 pmol/d/3-5X/Week) was 116.47 ± 16.20 and the “Stress Value Vertebra” value ([2]; 500 pmol/d/3-5X/Week) was 17.14 ± 0.52.

With `C=C1[C@H](O)CC(=C/C=C2\CCC[C@]3(C)[C@@H]([C@@H](C)CCCC(C)(C)O)CC[C@@H]23)C[C@H]1O` [2MD, 2-methylene-19-nor-20(S)-1α,25-dihydroxyvitamin D3] the “restoring bone of ovariectomized, old female rats” value ([1]; 32 pmol given 2 times per week, compared to 1,25(OH)2D3 at high doses 3 times per week) was “very effective in restoring bone”, the “building bone mass in ovariectomized rats” value ([1]; compared to the native hormone / sham-operated controls, FIGS. 4 and 6) was “extraordinarily effective in building bone mass; also recorded: causes an increase in bone mass above that of sham-operated controls” and the “serum calcium concentration in ovariectomized rats” value ([1]; dosage levels used in the bone mass study) was “without increasing serum calcium concentration; also recorded: no change in serum calcium”. The “% ash in the femur” value ([1]; ovariectomized old female rats) was “increases % ash in the femur; also recorded: percent ash is unexpectedly increased further”, the BMC ([1]; 32 pmol/d 2X/Week, 8 weeks) was 8.4 ± 0.13 g and the “BMC/Body Wt.” value ([1]; 32 pmol/d 2X/Week, 8 weeks) was 22.4 ± 0.64 mg/g. For the same molecule, the BMD ([1]; 32 pmol/d 2X/Week, 8 weeks) was 0.295 ± 0.009 g/cm^2, the “Body Wt.” value ([1]; 32 pmol/d 2X/Week, 8 weeks) was 375 ± 8.2 g and the BMC ([1]; 32 pmol/d 2X/Week, 17 weeks) was 9.7 ± 0.19 g. For the same molecule, the “BMC/Body Wt.” value ([1]; 32 pmol/d 2X/Week, 17 weeks) was 26.2 ± 0.92 mg/g, the BMD ([1]; 32 pmol/d 2X/Week, 17 weeks) was 0.313 ± 0.011 g/cm^2 and the “Body Wt.” value ([1]; 32 pmol/d 2X/Week, 17 weeks) was 373 ± 11.0 g. The BMC ([1]; 32 pmol/d 2X/Week, 30 weeks) was 11.6 ± 0.40 g, the “BMC/Body Wt.” value ([1]; 32 pmol/d 2X/Week, 30 weeks) was 33.4 ± 1.60 mg/g and the BMD ([1]; 32 pmol/d 2X/Week, 30 weeks) was 0.331 ± 0.006 g/cm^2. The “Body Wt.” value ([1]; 32 pmol/d 2X/Week, 30 weeks) was 346 ± 11.0 g, the “Femur Ash” value ([1]; 32 pmol/d 2X/Week, 30 weeks) was 462 ± 21.4 mg and the “Femur Ash (%)” value ([1]; 32 pmol/d 2X/Week, 30 weeks) was 65.6 ± 1.7%. The “Serum CA” value ([1]; 32 pmol/d 2X/Week, 30 weeks) was 10.8 ± 0.22 mg/dL, the BMC ([1]; 65 pmol/d 1X/Week, 8 weeks) was 8.5 ± 0.23 g and the “BMC/Body Wt.” value ([1]; 65 pmol/d 1X/Week, 8 weeks) was 22.2 ± 0.53 mg/g. For the same molecule, the BMD ([1]; 65 pmol/d 1X/Week, 8 weeks) was 0.293 ± 0.004 g/cm^2, the “Body Wt.” value ([1]; 65 pmol/d 1X/Week, 8 weeks) was 408 ± 10.5 g and the BMC ([1]; 65 pmol/d 1X/Week, 17 weeks) was 9.6 ± 0.24 g. The “BMC/Body Wt.” value ([1]; 65 pmol/d 1X/Week, 17 weeks) was 24.0 ± 0.80 mg/g, the BMD ([1]; 65 pmol/d 1X/Week, 17 weeks) was 0.312 ± 0.005 g/cm^2 and the “Body Wt.” value ([1]; 65 pmol/d 1X/Week, 17 weeks) was 402 ± 11.3 g. For the same molecule, the BMC ([1]; 65 pmol/d 1X/Week, 30 weeks) was 10.2 ± 0.33 g, the “BMC/Body Wt.” value ([1]; 65 pmol/d 1X/Week, 30 weeks) was 26.0 ± 1.10 mg/g and the BMD ([1]; 65 pmol/d 1X/Week, 30 weeks) was 0.310 ± 0.009 g/cm^2. For the same molecule, the “Body Wt.” value ([1]; 65 pmol/d 1X/Week, 30 weeks) was 393 ± 15.0 g, the “Femur Ash” value ([1]; 65 pmol/d 1X/Week, 30 weeks) was 443 ± 11.6 mg and the “Femur Ash (%)” value ([1]; 65 pmol/d 1X/Week, 30 weeks) was 62.5 ± 0.57%. The “Serum CA” value ([1]; 65 pmol/d 1X/Week, 30 weeks) was 10.7 ± 0.46 mg/dL, the “binding to the vitamin D receptor compared to 1,25-(OH)2D3” value [3] was “about as active as 1,25(OH)2D3” and the “binding to the vitamin D receptor compared to 1,25-(OH)2D3” value ([3]; listed as 2-methylene-20(S)-19-nor-1,25-(OH)2D3) was “bound equally well”. For the same molecule, the “breaking strength in the femurs (cortical strength)” value ([2]; animals shown in Table 1) was “increases breaking strength in the femurs”, the “crushing strength in the vertebra (trabecular strength)” value ([2]; animals shown in Table 1) was “increases” and the “Stress Value Femur” value ([2]; 32 pmol/d/2X/Week) was 134.84 ± 14.12. The “Stress Value Vertebra” value ([2]; 32 pmol/d/2X/Week) was 23.93 ± 6.59, the “Stress Value Femur” value ([2]; 65 pmol/d/1X/Week) was 133.71 ± 14.06 and the “Stress Value Vertebra” value ([2]; 65 pmol/d/1X/Week) was 17.07 ± 5.73. For the same molecule, the “activity in stimulating intestinal calcium transport compared to 1,25(OH)2D3” value [4] was “activity similar to that of 1,25-dihydroxyvitamin D3; also recorded: approximately equal that of 1,25-(OH)2D3” and the “elevation of serum calcium concentration” value (Rhesus monkeys) was “does not cause significant elevation of serum calcium concentration; also recorded: without appreciably elevating serum calcium concentration”.
